The target in experiment [1] is T1, Tyk2 (Homo sapiens, UniProt P29597).
T1 construct: purchased Invitrogen
Description: Tyk2 enzyme inhibition test (LANCE method). The format is biochemical. Particulars: for inhibition at 1 µM: test compound 1 μM, read-out: Inhibitory rate (%) Tyk2 1 μM. As for the experimental part:
Tyk2 Enzyme Inhibition Test
(§1) Tyk2 enzyme inhibitory activity of test compounds was measured by LANCE method (PerkinElmer). First, a test compound diluted with assay buffer (50 mM HEPES (pH=7.5), 10 mM MgCl2, 1 mM EGTA, 2 mM DTT, 0.01% Tween20, 0.01% BSA) was added to 384-well plate at 2 μL each. Then, a Tyk2 (Invitrogen) solution and a fluorescence-labeled peptide substrate (ULight-JAK1, PerkinElmer) solution diluted with assay buffer at 375 ng/mL and 300 nM, respectively were added at 2 μL each. Then, enzyme reaction was started by adding 2 μL each of ATP solution prepared with assay buffer at 30 μM. After the reaction at room temperature for 1 hr, Detection Buffer (PerkinElmer) prepared to be 20 mM EDTA, 4 nM europium-labeled anti-phosphotyrosine antibody (PerkinElmer) was added at 6 μL each. After standing at room temperature for 1 hr, fluorescence intensity (excitation wavelength 340 nm, fluorescence wavelength 665 nm, delay time 100 microsecond) was measured by a plate reader, Envision (PerkinElmer). The inhibitory activity of each compound was calculated as relative value where fluorescence intensity of a well without enzyme is considered as 100% inhibition.
A general note: Time-resolved FRET reads energy transfer from a long-lived donor to a nearby acceptor.

Experiment [2] concerns the target T2, JAK1 (Homo sapiens, UniProt P23458).
T2 construct: purchased Invitrogen
In words: JAK1 enzyme inhibition test (LANCE method). The experiment is classed as biochemical. The following applies: for inhibition at 1 µM: test compound 1 μM, read-out: Inhibitory rate (%) JAK1 1 μM. As for the experimental part: JAK1 Enzyme Inhibition Test
as §1, with “JAK1 enzyme” for “Tyk2 enzyme”, “a JAK1” for “a Tyk2”, “at 187.5” for “at 375”, “at 150” for “at 30”

T1 sequence (P29597 whole entry): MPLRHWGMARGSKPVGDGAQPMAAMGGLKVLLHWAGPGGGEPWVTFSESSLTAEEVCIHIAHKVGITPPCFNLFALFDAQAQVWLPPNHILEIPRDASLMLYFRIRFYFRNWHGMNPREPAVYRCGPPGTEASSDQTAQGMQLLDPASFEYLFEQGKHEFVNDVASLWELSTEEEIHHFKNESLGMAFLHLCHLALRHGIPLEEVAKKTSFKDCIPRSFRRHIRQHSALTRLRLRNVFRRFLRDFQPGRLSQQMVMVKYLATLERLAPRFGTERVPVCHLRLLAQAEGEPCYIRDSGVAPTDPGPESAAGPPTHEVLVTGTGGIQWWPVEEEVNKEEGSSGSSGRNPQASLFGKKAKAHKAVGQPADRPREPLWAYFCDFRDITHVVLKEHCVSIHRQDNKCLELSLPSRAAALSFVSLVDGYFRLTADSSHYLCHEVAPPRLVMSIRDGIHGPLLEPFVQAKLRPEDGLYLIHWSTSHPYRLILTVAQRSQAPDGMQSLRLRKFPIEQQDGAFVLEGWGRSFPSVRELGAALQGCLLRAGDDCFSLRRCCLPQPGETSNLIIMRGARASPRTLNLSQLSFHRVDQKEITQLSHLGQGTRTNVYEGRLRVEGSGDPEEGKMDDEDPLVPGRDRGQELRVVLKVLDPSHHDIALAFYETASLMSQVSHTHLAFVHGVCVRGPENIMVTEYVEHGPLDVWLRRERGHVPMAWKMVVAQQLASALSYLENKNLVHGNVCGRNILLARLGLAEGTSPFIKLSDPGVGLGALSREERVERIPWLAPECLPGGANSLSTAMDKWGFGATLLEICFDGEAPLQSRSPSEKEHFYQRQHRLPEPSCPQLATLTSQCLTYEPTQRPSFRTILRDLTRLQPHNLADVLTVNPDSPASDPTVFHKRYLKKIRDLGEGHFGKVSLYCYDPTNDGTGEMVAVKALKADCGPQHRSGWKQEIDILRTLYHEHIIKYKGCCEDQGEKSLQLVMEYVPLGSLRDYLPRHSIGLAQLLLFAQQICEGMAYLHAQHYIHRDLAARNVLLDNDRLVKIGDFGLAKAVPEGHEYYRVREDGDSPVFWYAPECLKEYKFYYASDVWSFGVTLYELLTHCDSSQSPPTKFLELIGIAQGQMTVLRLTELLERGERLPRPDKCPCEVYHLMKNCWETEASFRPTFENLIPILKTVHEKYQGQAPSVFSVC
T2 sequence (P23458 whole entry): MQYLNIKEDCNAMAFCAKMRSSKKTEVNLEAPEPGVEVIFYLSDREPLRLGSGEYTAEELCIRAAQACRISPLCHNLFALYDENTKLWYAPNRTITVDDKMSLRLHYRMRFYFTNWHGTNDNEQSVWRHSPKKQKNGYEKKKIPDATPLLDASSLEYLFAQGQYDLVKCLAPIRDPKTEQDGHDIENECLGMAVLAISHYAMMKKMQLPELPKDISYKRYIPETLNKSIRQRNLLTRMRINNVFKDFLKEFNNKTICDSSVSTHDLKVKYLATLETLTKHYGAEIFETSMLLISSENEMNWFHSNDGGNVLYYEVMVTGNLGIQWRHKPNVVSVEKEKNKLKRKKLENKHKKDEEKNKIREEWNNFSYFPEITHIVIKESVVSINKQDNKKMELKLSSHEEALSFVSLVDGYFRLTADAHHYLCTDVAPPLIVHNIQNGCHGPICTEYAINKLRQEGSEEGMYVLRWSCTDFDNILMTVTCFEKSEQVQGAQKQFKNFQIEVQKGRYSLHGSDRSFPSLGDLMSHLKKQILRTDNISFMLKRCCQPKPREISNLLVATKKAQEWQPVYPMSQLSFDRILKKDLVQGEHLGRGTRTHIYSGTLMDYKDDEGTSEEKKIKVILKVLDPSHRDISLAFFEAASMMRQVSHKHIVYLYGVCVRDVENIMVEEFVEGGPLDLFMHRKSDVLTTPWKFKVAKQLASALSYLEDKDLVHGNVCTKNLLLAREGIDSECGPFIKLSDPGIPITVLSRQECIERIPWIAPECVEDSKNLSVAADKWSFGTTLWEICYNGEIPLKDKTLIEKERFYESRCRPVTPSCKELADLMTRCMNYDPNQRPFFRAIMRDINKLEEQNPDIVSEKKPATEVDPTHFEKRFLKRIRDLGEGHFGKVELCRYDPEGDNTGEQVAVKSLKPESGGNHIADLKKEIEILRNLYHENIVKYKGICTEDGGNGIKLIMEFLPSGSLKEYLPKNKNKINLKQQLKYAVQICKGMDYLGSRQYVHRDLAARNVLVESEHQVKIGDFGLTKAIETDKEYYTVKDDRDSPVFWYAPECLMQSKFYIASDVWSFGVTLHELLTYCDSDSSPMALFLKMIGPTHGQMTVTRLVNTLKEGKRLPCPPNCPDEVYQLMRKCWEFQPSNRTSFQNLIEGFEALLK

With `O=c1[nH]ccc2c1c(-c1ccc(C(F)(F)F)cc1)nn2C1CCCC1` [Example 51, 1-cyclopentyl-3-(4-(trifluoromethyl)phenyl)-1,5-dihydro-4H-pyrazolo[4,3-c]pyridin-4-one], the inhibition at 1 µM in experiment [1] was found to be 84%; in experiment [2] it was 90%.
Taken in the same sequence, the figures for `O=c1[nH]ccc2c1c(-c1cccc(C(F)(F)F)c1)nn2C1CCCC1` [Example 52, 1-cyclopentyl-3-(3-(trifluoromethyl)phenyl)-1,5-dihydro-4H-pyrazolo[4,3-c]pyridin-4-one] were 46% and 43%.
As for `O=c1[nH]ccc2c1c(-c1ccccc1C(F)(F)F)nn2C1CCCC1` [Example 53, 1-cyclopentyl-3-(2-(trifluoromethyl)phenyl)-1,5-dihydro-4H-pyrazolo[4,3-c]pyridin-4-one], the inhibition at 10 µM in experiment [1] (test compound 10 μM, read-out: Inhibitory rate (%) Tyk2 10 μM) is 28%; in experiment [2] (test compound 10 μM, read-out: Inhibitory rate (%) JAK1 10 μM), 10%.
Consider `O=c1[nH]ccc2c1c(-c1ccc(F)cc1)nn2C1CCCC1` [Example 54, 1-cyclopentyl-3-(4-fluorophenyl)-1,5-dihydro-4H-pyrazolo[4,3-c]pyridin-4-one], for which the inhibition at 1 µM in experiment [1] and in experiment [2] was 91% each time.
`O=c1[nH]ccc2c1c(-c1cccc(F)c1)nn2C1CCCC1` [Example 55, 1-cyclopentyl-3-(3-fluorophenyl)-1,5-dihydro-4H-pyrazolo[4,3-c]pyridin-4-one]: the inhibition at 1 µM stood at 85% in experiment [1] and 78% in experiment [2].
For `O=c1[nH]ccc2c1c(-c1ccccc1F)nn2C1CCCC1` [Example 56, 1-cyclopentyl-3-(2-fluorophenyl)-1,5-dihydro-4H-pyrazolo[4,3-c]pyridin-4-one], in that order: 31% and 13%.
As to `O=c1[nH]ccc2c1c(-c1ccc([N+](=O)[O-])cc1)nn2C1CCCC1` [Example 57, 1-cyclopentyl-3-(4-nitrophenyl)-1,5-dihydro-4H-pyrazolo[4,3-c]pyridin-4-one], the inhibition at 1 µM in experiment [1] is 81%; in experiment [2], 88%.
For `O=C1Cc2cc(-c3nn(C4CCCC4)c4cc[nH]c(=O)c34)ccc2N1` [Example 58, 1-cyclopentyl-3-(2-oxo-2,3-dihydro-1H-indol-5-yl)-1,5-dihydro-4H-pyrazolo[4,3-c]pyridin-4-one], in that order: 91% and 86%.
Regarding `O=c1[nH]ccc2c1c(-c1ccc3nonc3c1)nn2C1CCCC1` [Example 59, 3-(2,1,3-benzoxadiazol-5-yl)-1-cyclopentyl-1,5-dihydro-4H-pyrazolo[4,3-c]pyridin-4-one], the inhibition at 1 µM in experiment [1] turned out to be 56%; in experiment [2], 66%.
Turning to `CC(=O)c1c[nH]c(=O)c2c(-c3csc(C(N)=O)c3)cn(C3CCCC3)c12` [Example 60, 4-(7-acetyl-1-cyclopentyl-4-oxo-4,5-dihydro-1H-pyrrolo[3,2-c]pyridin-3-yl)thiophene-2-carboxamide], the inhibition at 1 µM was found to be 89% in experiment [1] and 50% in experiment [2].
For `NC(=O)c1cc(-c2cn(C3CCCC3)c3c(C(=O)O)c[nH]c(=O)c23)cs1` [Example 61, 3-(5-carbamoyl-3-thienyl)-1-cyclopentyl-4-oxo-4,5-dihydro-1H-pyrrolo[3,2-c]pyridine-7-carboxylic acid], in that order: 41% and 8%.
For the compound `NC(=O)c1cc(-c2cn(C3CCCC3)c3c(C(N)=O)c[nH]c(=O)c23)cs1` [Example 62, 3-(5-carbamoyl-3-thienyl)-1-cyclopentyl-4-oxo-4,5-dihydro-1H-pyrrolo[3,2-c]pyridine-7-carboxamide], the results for the inhibition at 1 µM in experiment [1] and in experiment [2] were 81% and 69%, respectively.
Regarding `CNC(=O)c1cc(-c2cn(C3CCCC3)c3c(C(=O)NC)c[nH]c(=O)c23)cs1` [Example 63, 1-cyclopentyl-N-methyl-3-(5-(methylcarbamoyl)-3-thienyl)-4-oxo-4,5-dihydro-1H-pyrrolo[3,2-c]pyridine-7-carboxamide], the results for the inhibition at 1 µM in experiment [1] and in experiment [2] were 51% and 59%, respectively.
For `N#Cc1c[nH]c(=O)c2c1c(C1CCCC1)nn2-c1csc(C(=O)O)c1` [Example 65, 4-(4-cyano-3-cyclopentyl-7-oxo-6,7-dihydro-1H-pyrazolo[3,4-c]pyridin-1-yl)thiophene-2-carboxylic acid], in that order: 76% and 27%.
Consider `N#Cc1c[nH]c(=O)c2c1c(C1CCCC1)nn2-c1csc(C(N)=O)c1` [Example 66, 4-(4-cyano-3-cyclopentyl-7-oxo-6,7-dihydro-1H-pyrazolo[3,4-c]pyridin-1-yl)thiophene-2-carboxamide], for which the inhibition at 1 µM in experiment [1] came to 92%; in experiment [2] it was 66%.
`NC(=O)c1cc(-n2nc(C3CCCC3)c3c(Br)c[nH]c(=O)c32)cs1` [Example 67, 4-(4-bromo-3-cyclopentyl-7-oxo-6,7-dihydro-1H-pyrazolo[3,4-c]pyridin-1-yl)thiophene-2-carboxamide]: the values for the inhibition at 1 µM in experiment [1] and in experiment [2] were 91% and 55%, respectively.
Regarding `COC(=O)c1cc(-n2nc(-c3ccccc3C)c3c(C#N)c[nH]c(=O)c32)cs1` [Example 68, methyl 4-(4-cyano-3-(2-methylphenyl)-7-oxo-6,7-dihydro-1H-pyrazolo[3,4-c]pyridin-1-yl)thiophene-2-carboxylate], the values for the inhibition at 1 µM in experiment [1] and in experiment [2] were 67% and 4%, respectively.
Taken in the same sequence, the figures for `Cc1ccccc1-c1nn(-c2csc(C(=O)O)c2)c2c(=O)[nH]cc(C#N)c12` [Example 69, 4-(4-cyano-3-(2-methylphenyl)-7-oxo-6,7-dihydro-1H-pyrazolo[3,4-c]pyridin-1-yl)thiophene-2-carboxylic acid] were 92% and 28%.
Taken in the same sequence, the figures for `Cc1ccccc1-c1nn(-c2csc(C(N)=O)c2)c2c(=O)[nH]cc(C#N)c12` [Example 70, 4-(4-cyano-3-(2-methylphenyl)-7-oxo-6,7-dihydro-1H-pyrazolo[3,4-c]pyridin-1-yl)thiophene-2-carboxamide] were 88% and 41%.
Turning to `NC(=O)Cc1ccc(-c2nn(-c3c(F)cccc3F)c3cc[nH]c(=O)c23)cc1` [Example 72, 2-(4-(1-(2,6-difluorophenyl)-4-oxo-4,5-dihydro-1H-pyrazolo[4,3-c]pyridin-3-yl)phenyl)acetamide], the inhibition at 1 µM in experiment [1] worked out at 99%; in experiment [2], 97%.
Turning to `COC(=O)c1c[nH]c(=O)c2c(-c3csc(C#N)c3)cn(C3CCCC3)c12` [Example 73, methyl 3-(5-cyano-3-thienyl)-1-cyclopentyl-4-oxo-4,5-dihydro-1H-pyrrolo[3,2-c]pyridine-7-carboxylate], the inhibition at 1 µM worked out at 83% in experiment [1] and 45% in experiment [2].
Consider `COC(=O)c1c[nH]c(=O)c2c(-c3csc(-c4noc(=O)[nH]4)c3)cn(C3CCCC3)c12` [Example 74, methyl 1-cyclopentyl-4-oxo-3-(5-(5-oxo-4,5-dihydro-1,2,4-oxadiazol-3-yl)-3-thienyl)-4,5-dihydro-1H-pyrrolo[3,2-c]pyridine-7-carboxylate], for which the results for the inhibition at 1 µM in experiment [1] and in experiment [2] were 85% and 44%, respectively.
Taken in the same sequence, the figures for `NS(=O)(=O)c1ccc(-n2nc(C3CCCC3)c3cc[nH]c(=O)c32)cc1` [Example 75, 4-(3-cyclopentyl-7-oxo-6,7-dihydro-1H-pyrazolo[3,4-c]pyridin-1-yl)benzenesulfonamide] were 84% and 93%.
Consider `COC(=O)c1cc(-c2cn(C3CCCC3)c3c(C#N)c[nH]c(=O)c23)cs1` [Example 76, methyl 4-(7-cyano-1-cyclopentyl-4-oxo-4,5-dihydro-1H-pyrrolo[3,2-c]pyridin-3-yl)thiophene-2-carboxylate], for which the inhibition at 1 µM in experiment [1] worked out at 99%; in experiment [2] it was 92%.
For `N#Cc1c[nH]c(=O)c2c(-c3csc(C(=O)O)c3)cn(C3CCCC3)c12` [Example 77, 4-(7-cyano-1-cyclopentyl-4-oxo-4,5-dihydro-1H-pyrrolo[3,2-c]pyridin-3-yl)thiophene-2-carboxylic acid], in that order: 99% and 96%.

Values taken from patent US9371320B2, “Heterocyclic compound” (TAKEDA PHARMACEUTICAL COMPANY LIMITED, priority 2012, dated 2016).
